Assay: wn = mass fraction of the nth substance listed
Conditions: Liquid, Vibrating tube method

CC(=O)c1ccccc1 [acetophenone] + CCCCCCCCO
mass density [kg/m3]
Conditions	w2 = 0.1075	w2 = 0.2132	w2 = 0.3172	w2 = 0.4195	w2 = 0.5201	w2 = 0.6192	w2 = 0.7166	w2 = 0.8126	w2 = 0.907
298.15 K, 100 kPa	996	971.2	947.9	926.2	905.9	886.6	868.6	851.8	836
298.15 K, 10000 kPa	1001.7	977	953.8	932.2	911.9	892.7	874.7	857.9	842.1
298.15 K, 15000 kPa	1004.5	979.8	956.6	935.1	914.9	895.6	877.6	860.9	845.1
298.15 K, 20000 kPa	1007.2	982.5	959.4	937.9	917.6	898.4	880.4	863.7	848
298.15 K, 25000 kPa	1009.8	985.2	962	940.6	920.3	901.2	883.2	866.5	850.7
298.15 K, 30000 kPa	1012.3	987.7	964.7	943.2	923	903.8	885.9	869.2	853.4
298.15 K, 35000 kPa	1014.9	990.3	967.2	945.8	925.6	906.4	888.5	871.8	855.9
298.15 K, 40000 kPa	1017.3	992.8	969.7	948.3	928.1	909	891	874.2	858.5
298.15 K, 45000 kPa	1019.7	995.1	972.2	950.7	930.6	911.4	893.5	876.8	861
298.15 K, 50000 kPa	1022.1	997.5	974.6	953.2	933	913.8	895.9	879.2	863.3
318.15 K, 100 kPa	978.9	954.5	931.3	910	890	871.1	853.4	837	821.6
318.15 K, 10000 kPa	985.3	960.9	937.8	916.6	896.7	877.8	860.2	843.9	828.3
318.15 K, 15000 kPa	988.3	964	940.9	919.7	899.8	881.1	863.3	847	831.6
318.15 K, 20000 kPa	991.3	967	943.9	922.8	902.9	884.1	866.4	850.2	834.7
318.15 K, 25000 kPa	994.1	969.9	946.9	925.7	905.9	887.1	869.5	853.2	837.7
